Test results as given in PMC4526890, “Crystal structures of Mycobacterium tuberculosis GlgE and complexes with non-covalent inhibitors” (Scientific Reports, 2015).

Biological target: T1, Mtb GlgE (Mycobacterium tuberculosis, UniProt P9WQ17)
T1 construct: full-length wild type, N-terminal His tag (modified pET-28), E. coli T7 Rosetta; homodimer, intermolecular C29 disulfide in crystal
Assay: X-ray crystal structure, […] Å, crystal soak
Assay type: binding
Details: 10 mM ligand, 1 h soak of maltose co-crystal; acceptor glucan site about 26 Å from M1P site; ternary complex with maltose

T1 sequence (P9WQ17 1-700): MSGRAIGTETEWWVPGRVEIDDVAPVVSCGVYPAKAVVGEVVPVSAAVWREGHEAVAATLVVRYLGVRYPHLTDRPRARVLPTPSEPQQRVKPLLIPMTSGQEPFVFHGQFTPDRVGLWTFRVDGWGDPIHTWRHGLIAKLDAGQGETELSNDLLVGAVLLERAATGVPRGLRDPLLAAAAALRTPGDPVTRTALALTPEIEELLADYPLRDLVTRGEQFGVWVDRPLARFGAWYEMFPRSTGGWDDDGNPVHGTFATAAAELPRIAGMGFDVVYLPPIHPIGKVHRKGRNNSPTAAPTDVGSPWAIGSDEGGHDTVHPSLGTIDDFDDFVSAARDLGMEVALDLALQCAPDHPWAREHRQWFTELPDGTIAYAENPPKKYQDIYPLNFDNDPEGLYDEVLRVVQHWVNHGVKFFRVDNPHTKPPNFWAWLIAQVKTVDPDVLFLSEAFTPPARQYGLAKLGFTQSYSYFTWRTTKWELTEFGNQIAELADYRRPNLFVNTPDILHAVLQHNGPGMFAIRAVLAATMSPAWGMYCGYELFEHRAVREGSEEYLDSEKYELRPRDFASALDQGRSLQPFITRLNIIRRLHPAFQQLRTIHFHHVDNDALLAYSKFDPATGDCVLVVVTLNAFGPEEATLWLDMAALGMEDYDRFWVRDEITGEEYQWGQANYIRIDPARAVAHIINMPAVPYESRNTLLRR

OC[C@H]1O[C@H](O[C@H]2[C@H](O)[C@@H](O)[C@@H](O[C@H]3[C@H](O)[C@@H](O)[C@@H](O[C@H]4[C@H](O)[C@@H](O)[C@@H](O[C@H]5[C@H](O)[C@@H](O)[C@@H](O[C@H]6[C@H](O)[C@@H](O)C(O)O[C@@H]6CO)O[C@@H]5CO)O[C@@H]4CO)O[C@@H]3CO)O[C@@H]2CO)[C@H](O)[C@@H](O)[C@@H]1O (stereo partly shown) [M6, maltohexaose]
X-ray crystal structure, 4.0 Å, crystal soak: ternary complex with Mtb GlgE bound to maltose and maltohexaose (GlgE-M6) was solved
